Test results published in the METLIN SMRT retention time set (Domingo-Almenara et al. 2019).

Experiment: gradient 5% acetonitrile 3 min, to 50% in 2 min, to 85% in 15 min, held 3 min, 100 µL/min
Details: column: Zorbax Extend-C18 2.1 x 50 mm; eluents: water / acetonitrile, 0.1% formic acid
In short: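 Pure standards were analyzed in mixtures of ~100 molecules using HPLC coupled to a quadrupole time-of-flight mass spectrometer, in both positive and negative ionization mode. Separation used a Zorbax Extend-C18 column (2.1 × 50 mm, 1.8 μm) at 100 μL/min, with water and acetonitrile each containing 0.1% formic acid. Dead and dwell volumes were 40 μL and 900 μL, and data were collected over 3 months. Retention time was read from computationally picked adduct peaks, each inspected manually.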

Structure (SMILES) | RP-LC retention time
Cc1ccc2c(=O)c3c([nH]c2c1C)CCN(CC(=O)Nc1ccc(F)cc1)C3 | 626 s
CCCN(CCC)C1COc2cccc(OC)c2C1 (stereo not given) | 722 s
CO[C@H]1C(=O)N(C2CCN(S(=O)(=O)c3cccnc3)CC2)[C@H]1c1ccncc1 | 579 s
Cc1sc(-c2cc(C(F)(F)F)on2)cc1S(=O)(=O)N1CCN(c2cccc(Cl)c2)CC1 | 1440 s
O=C1C(OC2CCN(S(=O)(=O)c3ccc(C(F)(F)F)cc3)CC2)CCN1CC1CC1 (stereo not given) | 925 s
Cc1cc(C)n2c(Nc3ccc(Cl)cc3)c(-c3ccc(Cl)cc3)nc2n1 | 886 s
COc1ccc(OC)c(NC(=O)Cn2c(C)cc(-c3nnc(C4CCC4)o3)c2C)c1 | 924 s
N#Cc1cccc(Cn2cc(S(=O)(=O)N3CCCC3)ccc2=O)c1 | 764 s
COc1cccc(NC(=O)C2CCCCN2S(=O)(=O)c2ccc(F)cc2)c1 (stereo not given) | 1000 s
COc1ccc(OC)c(NC(=O)C2CCCN2S(=O)(=O)c2cc3c(cc2C)NC(=O)CO3)c1 (stereo not given) | 772 s
CCn1cnc(S(=O)(=O)N2CCC(C(=O)Nc3ccc(OC)c(OC)c3)CC2)c1 | 704 s
COC(=O)Cn1c(-c2ccccc2)cnc1SCC(=O)Nc1nccs1 | 671 s
Cc1ccc(NC(=O)C2CCN(S(=O)(=O)c3cn(C(C)C)cn3)CC2)c(Br)c1 | 838 s
Cc1ccc(CNC(=O)c2nnc(-c3ccc(S(=O)(=O)N4CCCC4)cc3)o2)cc1 | 940 s
CCN1CCN(CCCNC(=O)Cn2c(-c3cccs3)cc3ccccc32)CC1 | 722 s
O=C(C1CCC1)N1CCc2sc(S(=O)(=O)NCc3ccc(F)cc3Cl)cc2C1 | 948 s
COc1cccc(-c2ccc(=O)n(Cc3nc(-c4cccc(Br)c4)no3)n2)c1 | 1110 s
O=C(NC1CCS(=O)(=O)C1)C1CCN(c2cnn(Cc3ccccc3)c(=O)c2)C1 (stereo not given) | 662 s
COc1ccc(C2(C(=O)N3CC[C@@H]4CN(Cc5ccccc5)[C@@H]4C3)CC2)cc1 | 652 s
CCC(C)NC(=O)N1CC(Oc2ccc(-c3noc(COC)n3)cc2)C1 (stereo not given) | 794 s
CCOc1ccc(NC(=O)C2CC(=O)N(CCc3c[nH]c4ccc(F)cc34)C2)cc1 (stereo not given) | 811 s
c1cn(Cc2nc(-c3ccc4c(c3)OCO4)no2)cn1 | 605 s
CNC(=O)c1ccc(-c2nc3cc(NS(=O)(=O)c4ccc(C(C)C)cc4)ccc3n2C)cc1 | 713 s
CN1CCN(S(=O)(=O)c2cccc(C#N)c2)CC1c1ccc(F)cc1 (stereo not given) | 579 s
CCS(=O)(=O)Nc1ccc(C2(C(=O)NCc3cccc(Cl)c3)CCC2)cc1 | 876 s

Structure (SMILES) | RP-LC retention time
O=C(NCC1(CO)CC1)c1ccc2nsnc2c1 | 602 s
O=C(C1CCN(c2cc(N3CCCCC3)ncn2)CC1)N1CCSCC1 | 628 s
Cc1ccccc1CNC(=O)Cn1cccc1-c1nnc(C2CCC2)o1 | 920 s
Cc1oc(-c2ccc(C(=O)NCCCN3CCOCC3)cc2)nc1CN1CCc2ccccc21 | 603 s
N[C@@H](CC(=O)N1CCn2c(nnc2C(F)(F)F)C1)Cc1cc(F)c(F)cc1F | 675 s
c1cncc(-c2n[nH]c(C3CCCCN3)n2)c1 (stereo not given) | 555 s
CC(=O)c1ccc(OC(=O)c2cc3c(C)nn(-c4ccccc4)c3s2)cc1 | 1310 s
O=S(=O)(Cc1ccccc1)N1CCC(c2noc(-c3cnccn3)n2)C1 (stereo not given) | 797 s
CCCNC(=O)C1CCCN(c2ccc(SCC(=O)Nc3ccc(F)cc3)nn2)C1 (stereo not given) | 668 s
O=C(NCCn1ncc2c(=O)n(Cc3ccccc3F)cnc21)c1ccc2c(c1)OCO2 | 678 s
COc1ccc(NC(=O)Cn2c(N)nc(C)c(C)c2=O)cc1 | 595 s
COc1cccc(N2CCN(CC(O)c3ccc4c(c3)OCO4)CC2)c1 (stereo not given) | 640 s
Clc1cc(Cl)cc(-c2ccc(CNCc3cccnc3)o2)c1 | 733 s
COCCN1CCC(N2CCCN(S(=O)(=O)c3ccc(C)cc3)CC2)C1=O (stereo not given) | 591 s
O=C(Nc1ccccc1C(F)(F)F)N1CC(n2cnnc2-c2ccccc2)C1 | 710 s
O=C(CCc1csc(NC(=O)Nc2ccccc2)n1)Nc1nc2ccccc2s1 | 864 s
COCc1noc([C@@H]2CC(F)(F)CN2C(=O)c2nccn2C)n1 | 716 s
Cc1cccc(C(=O)NCc2ccc3c(c2)nnn3C)c1 | 700 s
COc1ccc2c(c1)CC(NC(=O)NCc1ccc(OC)cc1OC)CO2 (stereo not given) | 780 s
CCc1ccc(-c2cc(C(F)(F)F)on2)cc1S(=O)(=O)N1CCC(C)CC1 | 1350 s
O=C(c1ccc(Nc2nn3c(=O)c4ccccc4nc3s2)cc1)N1CCN(c2ccccn2)CC1 | 622 s
O=C(CSc1ccc(-c2cccc([N+](=O)[O-])c2)nn1)NCc1cccs1 | 766 s
O=C(c1ccc(Cl)nc1)c1cccs1 | 897 s
CCOC(=O)C1=C(CN(C)Cc2ccccc2)NC(=O)NC1c1cccc(OC)c1OC (stereo not given) | 659 s
O=C(CN1C(=O)c2ccccc2C1=O)NCC1(c2cccs2)CCCCC1 | 936 s

The remaining lines, values ahead:

RP-LC retention time | Structure (SMILES)
652 s | Cc1noc(C)c1CCNC(=O)c1cc(-c2cccnc2)nc2ccccc12
656 s | O=C(c1cccn2c(=O)c3c4c(sc3nc12)CCCC4)N1CCN(c2ccccn2)CC1
747 s | CCCC(=O)NC1(c2nc(-c3ccncc3)no2)CCCCC1
749 s | O=C(c1ccco1)N1CCC(Cc2nnc(-c3ccccc3)o2)CC1
719 s | Cc1sc(NC(=O)CN(C)S(C)(=O)=O)c(C#N)c1C
579 s | CCCCC(=O)Nc1ccc2nc(N3CCN(CC)CC3)cc(C)c2c1
763 s | Cc1ccc(-c2nc3ccc(C)cn3c2NC(=O)c2ccc(Cl)cc2)cc1
597 s | CCN(CC)CCNC(=O)c1ccnc(-c2cccs2)c1
761 s | O=C(NCc1ccco1)c1nc2ccccn2c1-c1ccsc1
951 s | COc1ccc(NC(=O)C2CCN(S(=O)(=O)c3cn(C(C)C)cn3)CC2)c(OC)c1
573 s | CCOC(=O)c1c(C)c(CCC(=O)NCCN2CCCCC2)c(C)n1C
934 s | O=C(Nc1nnc(SCc2nnc(-c3ccccc3)o2)s1)C1CCCCC1
583 s | CNC(=O)c1cc(-c2ccc(OC)cc2)n[nH]1
608 s | COCc1cc(=O)n(Cc2ncc(C)c(OC)c2C)c(N2CCCC2)n1
925 s | CCn1ccc2cc(S(=O)(=O)N3CCCC(C(=O)NCCc4ccco4)C3)ccc21 (stereo not given)
820 s | COc1cc(C(=O)N2CCCC(C)(C(=O)NCc3ccc(C)cc3)C2)cc(OC)c1OC (stereo not given)
1000 s | CCn1ccc2cc(S(=O)(=O)N3CCCC(C(=O)NCCCc4ccccc4)C3)ccc21 (stereo not given)
598 s | COc1ccc(CN2C[C@@H]3C(=O)N(CCCN4CCCC4=O)C(=O)[C@@H]3C2)c(OC)c1
1240 s | CCCCCn1c(=O)c2ccccc2n(Cc2nc(-c3ccccc3)no2)c1=O
721 s | Cc1cccc(NC(=O)Nc2ccc(C)n(CC(=O)O)c2=O)c1

RP-LC retention time | Structure (SMILES)
651 s | CCOc1ccc(NC(=O)C2CCN(c3cncnc3N3CCOCC3)CC2)cc1
971 s | O=C(Cn1cccc(-c2nc(-c3ccc(Cl)cc3)no2)c1=O)Nc1ccc(F)cc1F
616 s | CN1CCN(CCCNC(=O)c2cc3occc3c(Nc3ccc(F)cc3)n2)CC1
799 s | CC(C)NC(=O)C1(C)CC(c2ccccc2)=NO1 (stereo not given)
943 s | COc1cc(OC)c(NC(=O)N(C)CCc2noc(-c3ccc(F)cc3)n2)cc1Cl
922 s | CCn1ncc(Cl)c1C(=O)N1CCCC1c1cccc(F)c1 (stereo not given)
658 s | CCOc1ccc(C(=O)NC2CCN(c3cc(-c4cccs4)[nH]n3)C2)cc1 (stereo not given)
740 s | CCc1ccccc1S(=O)(=O)N1C[C@H](F)C[C@@H]1C(=O)N1CCOCC1
689 s | CCNC(=O)C1CCCN(C(=O)Nc2ccc(NC(=O)Nc3ccccc3F)cc2)C1 (stereo not given)
1050 s | CSc1cccc(NC(=O)Cn2c(-c3ccccc3)nc(C)cc2=O)c1
683 s | Cc1nc(CC(=O)NC(C)c2ccc(F)cc2)sc1C(=O)NC1CC1 (stereo not given)
663 s | O=C(N/N=C/c1coc2ccccc2c1=O)c1cccnc1
613 s | O=C(N[C@@H]1CN(c2ncccn2)C[C@H]1CO)c1nccc2ccccc12
625 s | Cc1cc(C(=O)N2CCC(c3cc(N)on3)CC2)no1
683 s | COc1ccc(NC(=O)c2cn(-c3ccc(C#N)cc3)cn2)cc1OC
613 s | Cc1cccc(-c2noc(-c3ccc(N4CCN(c5ccccc5F)CC4)nc3)n2)c1
878 s | CC(C)n1cc(C2=CCN(C(=O)NC3CCCC3)CC2)c2cccnc21
839 s | O=C(Cc1cccs1)N1CCc2[nH]nc(-c3ccccc3)c2C1
661 s | CCC1CCCCN1CCCNC(=O)c1cc(S(=O)(=O)N2CCCC2)ccc1Cl (stereo not given)
942 s | Cc1ccc(Cl)cc1N1C(=O)CN(S(C)(=O)=O)CC1(C)C(=O)NC1CCCCCC1 (stereo not given)
